Legend:
Assay type in all cases: in vivo, female Athymic NCr nu/nu mice
[1] = system: NCI-H82 small cell lung tumor; assay: NCI-H82 xenograft model study 1: alisertib and carboplatin
Procedure: NCI-H82 1: […] Those animals selected with tumors in the proper volume range were randomized into 9 treatment and control groups (n=10/group) so that the median tumor volumes on the first day of treatment were as close as possible (206-219 mm^3). […] The suspension was diluted to 4 mg/mL with 2% sodium bicarbonate (NaHCO3) in WFI. The final composition of the alisertib vehicle was 10% HPBCD/1% NaHCO3 in WFI. The 4 mg/mL solution was diluted to 2 mg/mL with complete vehicle for the lower dose. The alisertib dosing formulations were stored in brown bottles at room temperature during the dosing period. […] A 10 mg/mL stock solution of carboplatin (Hospira, Inc.) was diluted each day of treatment with saline. […] Tumors were measured twice weekly using vernier calipers. […] Tumor size and body weight were measured approximately twice a week for the duration of the study. […] Tumor growth continued to be monitored after the dosing period in some studies. […] For each animal, the log tumor volume at the day of treatment initiation is subtracted from the log tumor volume on the subsequent days. This difference vs. time is used to calculate an area under the curve (AUC) for each animal using the trapezoid rule. In instances when an animal in a treatment group is removed early from the study, the last observed tumor value is carried forward through all subsequent time points. The synergy score for the combination of agents A and B is defined as 100*(mean(AUCAB)-mean(AUCA)-mean(AUCB)+mean(AUCctl))/mean(AUCctl): where AUCAB, AUCA, AUCB, and AUCctl are the AUC values for animals in the combination group, the A group, the B group, and the control group, respectively. The standard error of the synergy score is computed based on the variation in the AUC values among the animals. […] If the P-value is above 0.05, then the combination is considered to be additive. If the P-value is below 0.05, and the synergy score is less than zero, then the combination is considered to be synergistic. If the P-value is below 0.05 and the synergy score was greater than zero, but the mean AUC for the combination was […] than the lowest mean AUC among the two single agent treatments, then the combination was sub-additive. If the P-value is below 0.05 and if the synergy score was greater than zero, and the mean AUC for the combination was greater than the mean AUC for at least one of the single agent treatments, then the combination was antagonistic. […] In the combination treatment groups alisertib was administered first, followed immediately by the administration of carboplatin. One group served as a vehicle-treated control group (Group 1) receiving PO treatment with the vehicle used for administration of alisertib in treatment groups on a QDx21 schedule.

[2] = system: NCI-H82 small cell lung tumor; assay: NCI-H82 xenograft model study 2: alisertib and cisplatin
Text: NCI-H82 2: A thirty-to-forty mg fragment of NCI-H82 small cell lung tumor, propagated in an in vivo passage, was implanted SC in the area of the right flank of female Athymic NCr nu/nu mice (age 5 weeks, Charles River Laboratories, Wilmington, MA) using a 12-gauge trocar needle. Tumors were allowed to reach 100-245 mm^3 in volume before the start of treatment. A sufficient number of mice were implanted so that tumors in a volume range as narrow as possible were selected for the trial on the day of treatment initiation (day 14 after tumor implantation, designated as SD, or Day 0). Those animals selected with tumors in the proper volume range were randomized into 9 treatment and control groups (n=10/group) so that the median tumor volumes on the first day of treatment were as close as possible (196-198 mm^3).
(§1) An 8 mg/mL suspension of alisertib was formulated weekly by adding a half volume of 20% HPBCD in water for injection (WFI) to the alisertib powder, then mixing by vortexing, and sonicating for one minute. The suspension was diluted to 4 mg/mL with 2% sodium bicarbonate (NaHCO3) in WFI. The final composition of the alisertib vehicle was 10% HPBCD/1% NaHCO3 in WFI. The 4 mg/mL solution was diluted to 2 mg/mL with complete vehicle for the lower dose. The alisertib dosing formulations were stored in brown bottles at room temperature during the dosing period. All alisertib injections were administered on the basis of exact animal body weight on each day of treatment, using an injection volume of 0.05 mL/10 g body weight.
(§2) A 1 mg/mL stock solution of cisplatin (Cisplatin Injection, PCH […]) was diluted each day of treatment with saline to 0.8 and 0.4 mg/mL. Cisplatin injections were administered on the basis of exact animal body weight on each day of treatment, using an injection volume of 0.05 mL/10 g body weight.
(§3) Tumors were measured twice weekly using vernier calipers. Tumor volumes were calculated using standard procedures V=W^2×L/2). When mean tumor volumes reached approximately 206-219 mm^3 for NCI-H82 1, 196-198 mm^3 for NCI-H82 2, or 169-174 mm^3 for NCI-H69, mice were randomized into groups of n=10/arm as described in the tables below, and injected with vehicle, alisertib or agents (cisplatin, or carboplatin), or the combination of alisertib plus one of the agents, at various doses and schedules as described below in Tables 1a, 2a and 3a. Tumor size and body weight were measured approximately twice a week for the duration of the study. […] Tumor growth continued to be monitored after the dosing period in some studies. […]
(§4) Measurements from the day of treatment initiation to Day 20 or Day 21 following treatment initiation are analyzed as specified in Tables below. […]

[3] = system: NCI-H69 small cell lung tumor; assay: NCI-H69 xenograft model: alisertib and cisplatin
Text: NCI-H69: A thirty-to-forty mg fragment of NCI-H69 small cell lung tumor, propagated in an in vivo passage, was implanted SC in the area of the right flank of female Athymic NCr nu/nu nice (age 6 weeks, Charles River Laboratories, Frederick, MD) using a 12-gauge trocar needle. Tumors were allowed to reach 100-245 mm^3 in volume before the start of treatment. A sufficient number of mice were implanted so that tumors in a volume range as narrow as possible were selected for the trial on the day of treatment initiation (day 24 after tumor implantation, designated as SD, or Day 0). Those animals selected with tumors in the proper volume range were randomized into 9 treatment and control groups (n=10/group) so that the mean tumor volumes on the first day of treatment were as close as possible (169-174 mm^3).
as §1, §2, §3, §4

N.N.O=C([O-])C1(C(=O)[O-])CCC1.[Pt+2] [Carboplatin, carboplatin]
Tumor Volume Day 21 ([1]; 25 mg/kg Carboplatin Q7Dx3 IP): 1373 mm^3
Tumor Volume Day 21 ([1]; 75 mg/kg Carboplatin Q7Dx3 IP): 965 mm^3

N.N.[Cl][Pt][Cl] [Cisplatin, cisplatin]
Tumor Volume Day 20 ([2]; 2 mg/kg Cisplatin Q4Dx3 IP): 1429 mm^3
Tumor Volume Day 20 ([2]; 4 mg/kg Cisplatin Q4Dx3 IP): 1270 mm^3
Tumor Volume Day 20 ([3]; 2 mg/kg Cisplatin Q4Dx3 IP): 604 mm^3
Tumor Volume Day 20 ([3]; 4 mg/kg Cisplatin Q4Dx3 IP): 300 mm^3

COc1cc(Nc2ncc3c(n2)-c2ccc(Cl)cc2C(c2c(F)cccc2OC)=NC3)ccc1C(=O)O [Alisertib, 4-{[9-chloro-7-(2-fluoro-6-methoxyphenyl)-5H-pyrimido[5,4-d][2]benzazepin-2-yl]amino}-2-methoxybenzoic acid]
Tumor Volume Day 21 ([1]; 10 mg/kg Alisertib QDx21 PO): 1701 mm^3
Tumor Volume Day 21 ([1]; 20 mg/kg Alisertib QDx21 PO): 1640 mm^3
Tumor Volume Day 20 ([2]; 10 mg/kg Alisertib QDx21 PO): 1578 mm^3
Tumor Volume Day 20 ([2]; 20 mg/kg Alisertib QDx21 PO): 1461 mm^3
Tumor Volume Day 20 ([3]; 10 mg/kg Alisertib QDx21 PO): 374 mm^3
Tumor Volume Day 20 ([3]; 20 mg/kg Alisertib QDx21 PO): 149 mm^3
